Columns and labels:
[1] = target: T1, Neuromedin-K receptor (Homo sapiens, UniProt P29371); assay: Compound was evaluated for affinity towards human Neurokinin NK3 receptor
T1 sequence (P29371 whole entry): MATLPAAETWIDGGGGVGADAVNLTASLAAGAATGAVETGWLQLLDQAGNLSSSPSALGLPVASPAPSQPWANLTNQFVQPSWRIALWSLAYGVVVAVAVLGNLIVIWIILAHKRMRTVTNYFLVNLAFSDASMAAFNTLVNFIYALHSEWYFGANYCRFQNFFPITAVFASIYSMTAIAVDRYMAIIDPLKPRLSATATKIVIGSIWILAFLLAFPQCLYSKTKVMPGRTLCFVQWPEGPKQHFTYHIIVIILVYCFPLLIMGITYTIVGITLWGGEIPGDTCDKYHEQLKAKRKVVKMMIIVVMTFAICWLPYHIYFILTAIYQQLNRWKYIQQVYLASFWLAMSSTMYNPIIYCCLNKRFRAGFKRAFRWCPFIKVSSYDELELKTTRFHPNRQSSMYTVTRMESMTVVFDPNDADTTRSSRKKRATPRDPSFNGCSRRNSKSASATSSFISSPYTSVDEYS

[2] = target: T2, Substance-K receptor (Homo sapiens, UniProt P21452); assay: Compound was evaluated for affinity towards human Neurokinin NK2 receptor
T2 sequence (P21452 whole entry): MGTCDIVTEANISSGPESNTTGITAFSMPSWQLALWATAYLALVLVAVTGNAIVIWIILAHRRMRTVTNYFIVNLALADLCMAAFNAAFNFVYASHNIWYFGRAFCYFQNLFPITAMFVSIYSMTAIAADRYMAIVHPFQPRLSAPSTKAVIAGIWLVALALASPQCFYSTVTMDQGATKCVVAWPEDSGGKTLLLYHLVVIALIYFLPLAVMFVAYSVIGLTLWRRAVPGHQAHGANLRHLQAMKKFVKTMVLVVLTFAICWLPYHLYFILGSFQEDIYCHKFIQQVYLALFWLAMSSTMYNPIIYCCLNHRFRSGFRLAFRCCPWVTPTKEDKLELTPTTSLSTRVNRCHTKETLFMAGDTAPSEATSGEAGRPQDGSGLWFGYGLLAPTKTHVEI

[3] = target: Substance-P receptor (Homo sapiens, UniProt P25103); assay: Compound was evaluated for affinity towards human Neurokinin NK1 receptor
Chain of Substance-P receptor (P25103 whole entry): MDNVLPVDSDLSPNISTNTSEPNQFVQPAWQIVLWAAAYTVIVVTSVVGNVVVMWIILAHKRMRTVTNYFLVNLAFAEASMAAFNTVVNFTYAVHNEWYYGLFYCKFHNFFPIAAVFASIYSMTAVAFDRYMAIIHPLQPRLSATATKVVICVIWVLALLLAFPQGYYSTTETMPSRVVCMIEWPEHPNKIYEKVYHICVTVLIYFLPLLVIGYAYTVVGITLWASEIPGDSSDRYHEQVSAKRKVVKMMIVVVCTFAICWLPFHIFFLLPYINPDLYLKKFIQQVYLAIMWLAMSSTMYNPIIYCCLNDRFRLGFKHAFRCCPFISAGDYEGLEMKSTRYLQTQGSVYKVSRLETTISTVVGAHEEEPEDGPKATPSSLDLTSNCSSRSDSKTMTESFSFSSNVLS

SMILES	IC50 [1]	IC50 [2]	IC50 [3]
O=C1CCC(CCCN2CCC(n3c(=O)[nH]c4ccccc43)CC2)(c2ccc(Cl)c(Cl)c2)CN1Cc1ccccc1 (configuration not stated)	539 nM	6.4 nM	743 nM
O=C(c1ccccc1)N1CCCC(CCCN2CCC3(CCc4ccccc43)CC2)(c2ccc(Cl)c(Cl)c2)C1 (configuration not stated)	2.6 nM	204 nM	272 nM
CC(=O)C1(c2ccccc2)CCN(CCCC2(c3ccc(Cl)c(Cl)c3)CCC(=O)N(Cc3ccccc3)C2)CC1 (configuration not stated)	19 nM	3.9 nM	1030 nM
O=C(c1ccccc1)N1CCCC(CCCN2CCC3(CC2)CN(c2ccccc2)NC3=O)(c2ccc(Cl)c(Cl)c2)C1 (configuration not stated)	6.8 nM	50 nM	108 nM
CC(=O)C1(c2ccccc2)CCN(CCCC2(c3ccc(Cl)c(Cl)c3)CCCN(C(=O)c3ccccc3)C2)CC1 (configuration not stated)	1.5 nM	389 nM	460 nM
CS(=O)(=O)N1CC2(CCN(CCCC3(c4ccc(Cl)c(Cl)c4)CCC(=O)N(Cc4ccccc4)C3)CC2)c2ccccc21 (configuration not stated)	25 nM	2.2 nM	763 nM
O=C1CCC(CCCN2CCC3(CC2)CN(c2ccccc2)NC3=O)(c2ccc(Cl)c(Cl)c2)CN1Cc1ccccc1 (configuration not stated)	127 nM	2.5 nM	892 nM
CS(=O)(=O)N1CC2(CCN(CCCC3(c4ccc(Cl)c(Cl)c4)CCCN(C(=O)c4ccccc4)C3)CC2)c2ccccc21 (configuration not stated)	1.2 nM	177 nM	497 nM
O=C(c1ccccc1)N1CCCC(CCCN2CCC(n3c(=O)[nH]c4ccccc43)CC2)(c2ccc(Cl)c(Cl)c2)C1 (configuration not stated)	7.9 nM	348 nM	379 nM

Source: ChEMBL document CHEMBL1130818, “High affinity, selective neurokinin 2 and neurokinin 3 receptor antagonists from a common structural template” (Bioorg Med Chem Lett, 1998)
